Laboratory results as given in patent publication US9328138B2 (priority 2011, dated 2016).

How the values were obtained:
[1] = target: T1, HCV genotype 1b (BK) NS3 modified enzyme with a R155K mutation (Hepatitis C virus genotype 1b, UniProt P26663, R1181K); assay: HCV NS3 protease time-resolved fluorescence (TRF) assay, genotype 1b R155K; format: biochemical; settings: Ki 1b R155K
T1 construct: HCV genotype 1b (BK) NS3 modified enzyme
Outline: (§1)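 Pre-incubation of NS3/NS4A protease with inhibitor for 10 min in pH 7.5 HEPES buffer with 10 mM DTT; 25 nM TRF peptide substrate, hydrolysis 6 h at room temperature. Fluorescence read at ex 340/em 615 nm with 400 μs delay, enzyme level set for S/B 5-20; IC50 by four-parameter fit.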

[2] = target: HCV NS3 protease genotype 3a (3A-1) (Hepatitis C virus genotype 3a, UniProt Q81258); assay: HCV NS3 protease time-resolved fluorescence (TRF) assay, genotype 3a; format: biochemical; settings: Ki 3a
Outline: as §1

[3] = genotype 1b (BK) NS3 R155K, single value
[4] = first of two values printed in the cell (not explained)
[5] = second of two values printed in the cell (not explained)

Row | SMILES | Ki [1, 3] [nM] | Ki [2] [nM] | Ki [1, 4] [nM] | Ki [1, 5] [nM]
1 | C=C[C@@H]1C[C@]1(NC(=O)[C@@H]1C[C@@H]2CN1C(=O)[C@H](C(C)(C)C)NC(=O)O[C@@H]1C[C@H]1CCCCCc1c(nc3ccccc3c1OCCCN(CCO)Cc1ccccc1)O2)C(=O)NS(=O)(=O)C1(C)CC1 [Example 187, (1aR,5S,8S,10R,22aR)-17-{3-[benzyl(2-hydroxyethyl)amino]propoxy}-5-tert-butyl-N-[(1R,2S)-2-ethenyl-1-{[(1-methylcyclopropyl)sulfonyl]carbamoyl}cyclopropyl]-3,6-dioxo-1,1a, 3,4,5,6,9,10,18,19,20,21,22,22a-tetradecahydro-8H-7,10-methanocyclopropa[18,19][1,10,3,6] dioxadiazacyclononadecino[11,12-b] quinoline-8-carboxamide] | 0.24 | 6.1 | – | –
2 | C=C[C@@H]1C[C@]1(NC(=O)[C@@H]1C[C@@H]2CN1C(=O)[C@H](C(C)(C)C)NC(=O)O[C@@H]1C[C@H]1CCCCCc1c(nc3ccccc3c1OCCCN1CCN(C)CC1)O2)C(=O)NS(=O)(=O)C1(C)CC1 [Example 131, (1aR,5S,8S,10R,22aR)-5-tert-butyl-N-[(1R,2S)-2-ethenyl-1-{[(1-methylcyclopropyl)sulfonyl]carbamoyl}cyclopropyl]-17-[3-(4-methylpiperazin-1-yl)propoxy]-3,6-dioxo-1,1a,3,4,5,6,9,10,18,19,20,21,22,22a-tetradecahydro-8H-7,10-methanocyclopropa[8,19][1,10,3,6]dioxadiazacyclononadecino[11,12-b]quinoline-8-carboxamide] | 0.11 | 1.3 | – | –
3 | C=C[C@@H]1C[C@]1(NC(=O)[C@@H]1C[C@@H]2CN1C(=O)[C@H](C(C)(C)C)NC(=O)O[C@@H]1C[C@H]1CCCCCc1c(nc3ccccc3c1OC1C3COCC1CN(C(=O)OC(C)(C)C)C3)O2)C(=O)NS(=O)(=O)C1(C)CC1 (single isomer, unassigned) [Example 254] | – | 47.5 | 0.116 | 2.3
4 | C=C[C@@H]1C[C@]1(NC(=O)[C@@H]1C[C@@H]2CN1C(=O)[C@H](C1CCCC1)NC(=O)O[C@@H]1CCC[C@H]1CC/C=C/Cc1c(nc3ccccc3c1OCCCn1cnnc1)O2)C(=O)NS(=O)(=O)C1(C)CC1 [Example 53, (3aR,7S,10S,12R,21E,24aS)-7-cyclopentyl-N-[(1R,2S)-2-ethenyl-1-{[(1-methylcyclopropyl)sulfonyl]carbamoyl}cyclopropyl]-5,8-dioxo-19-[3-(4H-1,2,4-triazol-4-yl)propoxy]-1,2,3,3a,5,6,7,8,11,12,20,23,24,24a-tetra decahydro-10H-9,12-methanocyclopenta[18,19][1,10,3,6] dioxadiazacyclononadecino[11,12-b] quinoline-10-carboxamide] | 0.11 | 0.55 | – | –
5 | C=C[C@@H]1C[C@]1(NC(=O)[C@@H]1C[C@@H]2CN1C(=O)[C@H](C1CCCC1)NC(=O)O[C@@H]1CCC[C@H]1CCCCCc1c(nc3ccccc3c1OCC)O2)C(=O)NS(=O)(=O)C1CC1 [Example 24, (3aR,7S,10S,12R,24aR)-7-cyclopentyl-N-{(1R,2S)-1-[(cyclopropylsulfonyl)carbamoyl]-2-ethenylcyclopropyl}-19-ethoxy-5,8-dioxo-1,2,3,3a,5,6,7,8,11,12,20,21,22,23,24,24a-hexadecahydro-10H-9,12-methanocyclopenta[18,19][1,10,3,6]dioxadiazacyclononadecino[11,12-b]quinoline-10-carboxamide] | 0.39 | 9.1 | – | –
6 | C=C[C@@H]1C[C@]1(NC(=O)[C@@H]1C[C@@H]2CN1C(=O)[C@H](C1CCCCC1)NC(=O)O[C@@H]1C[C@H]1CCCCCc1c(nc3ccccc3c1OC1CC3CCC(C1)N3C(=O)OC(C)(C)C)O2)C(=O)NS(=O)(=O)C1(C)CC1 (stereo partly drawn) [Example 282, tert-butyl 3-{[(1aR,5S,8S,10R,22aR)-5-cyclohexyl-8-{[(1R,2S)-2-ethenyl-1-{[(1-methylcyclopropyl)sulfonyl]carbamoyl}cyclopropyl]carbamoyl}-3,6-dioxo-1,1a,3,4,5,6,9,10,18,19,20,21,22,22a-tetradecahydro-8H-7,10-methanocyclopropa[18,19][1,10,3,6]dioxadiazacyclononadecino[11,12-b]quinolin-17-yl]oxy}-8-azabicyclo[3.2.1]octane-8-carboxylate] | – | 140 | 0.14 | 5.3
7 | C=CC1C[C@]1(NC(=O)[C@@H]1C[C@@H]2CN1C(=O)[C@H](C1CCCC1)NC(=O)O[C@@H]1CCC[C@H]1CC/C=C/Cc1c(nc3ccccc3c1OCCN1CCCCC1)O2)C(=O)NS(=O)(=O)C1CC1 (stereo partly shown) [Example 81] | 0.29 | 4.6 | – | –
8 | C=C[C@@H]1C[C@]1(NC(=O)[C@@H]1C[C@@H]2CN1C(=O)[C@H](C1CCCC1)NC(=O)O[C@@H]1CCC[C@H]1CC/C=C/Cc1c(nc3ccccc3c1OCCCOCCOC)O2)C(=O)NS(=O)(=O)C1(C)CC1 [Example 57, (3aR,7S,10S,12R,21E,24aS)-7-cyclopentyl-N-[(1R,2S)-2-ethenyl-1-{[(1-methylcyclopropyl)sulfonyl]carbamoyl}cyclopropyl]-19-[3-(2-methoxyethoxy)propoxy]-5,8-dioxo-1,2,3,3a, 5,6,7,8,11,12,20,23,24,24a-tetradecahydro-10H-9,12-methanocyclopenta[18,19][1,10,3,6]dioxadiazacyclononadecino[11,12-b] quinoline-10-carboxamide] | 0.11 | 2.3 | – | –
9 | C=C[C@@H]1C[C@]1(NC(=O)[C@@H]1C[C@@H]2CN1C(=O)[C@H](C(C)(C)C)NC(=O)O[C@@H]1C[C@H]1CCCCCc1c(nc3ccccc3c1OCCCNC1CCCc3ccccc31)O2)C(=O)NS(=O)(=O)C1(C)CC1 (stereo partly drawn) [Example 204, (1aR,5S,8S,10R,22aR)-5-tert-butyl-N-[(1R,2S)-2-ethenyl-1-{[(1-methylcyclopropyl)sulfonyl]carbamoyl}cyclopropyl]-3,6-dioxo-17-[3-(1,2,3,4-tetrahydronaphthalen-1-ylamino)propoxy]-1,1a,3,4,5,6,9,10,18,19, 20,21,22,22a-tetradecahydro-8H-7,10-methanocyclopropa[18,19][1,10,3,6] dioxadiazacyclononadecino[11,12-b] quinoline-8-carboxamide] | 0.15 | 2.4 | – | –
10 | C=C[C@@H]1C[C@]1(NC(=O)[C@@H]1C[C@@H]2CN1C(=O)[C@H](C1CCCC1)NC(=O)O[C@@H]1CCC[C@H]1CCCCCc1c(nc3ccccc3c1OCCN1CC3CCC1C3)O2)C(=O)NS(=O)(=O)C1CC1 [Example 60, (3aR,7S,10S,12R,24aR)-19-[2-(2-azabicycle [2.2.1]hept-2-yl)ethoxy]-7-cyclo pentyl-N-{(1R,2S)-1-[(cyclopropylsulfonyl)carbamoyl]-2-ethenylcyclopropyl}-5,8-dioxo-1,2,3,3a,5,6,7,8,11,12,20,21,22,23,24,24a-hexadecahydro-10H-9,12-methanocyclopenta [18,19][1,10,3,6]dioxadiazacyclononadecino [11,12-b]quinoline-10-carboxamide] | 0.61 | 12 | – | –
11 | C=C[C@@H]1C[C@]1(NC(=O)[C@@H]1C[C@@H]2CN1C(=O)[C@H](C(C)(C)C)NC(=O)O[C@@H]1C[C@H]1CCCCCc1c(nc3ccccc3c1OC1CCN(CC)CC1)O2)C(=O)NS(=O)(=O)C1(C)CC1 [Example 229, (1aR,5S,8S,10R,22aR)-5-tert-butyl-N-[(1R,2S)-2-ethenyl-1-{[(1-methylcyclopropyl)sulfonyl]carbamoyl}cyclopropyl]-17-[(1-ethylpiperidin-4-yl)oxy]-3,6-dioxo-1,1a,3,4,5,6,9,10,18,19,20,21,22,22a-tetradecahydro-8H-7,10-methanocyclopropa[18,19][1,10,3,6] dioxadiazacyclononadecino[11,12-b]quinoline-8-carboxamide] | 0.034 | 0.25 | – | –
12 | CC[C@@H]1C[C@]1(NC(=O)[C@@H]1C[C@@H]2CN1C(=O)[C@H](C1CCCC1)NC(=O)O[C@@H]1CCC[C@H]1CCCCCc1c(nc3ccccc3c1OC)O2)C(=O)NS(=O)(=O)C1CC1 [Example 27, (3aR,7S,10S,12R,24aR)-7-cyclo pentyl-N-{(1R,2R)-1-[(cyclopropylsulfonyl)carbamoyl]-2-ethylcyclopropyl}-19-methoxy-5,8-dioxo-1,2,3,3a,5,6,7,8,11,12,20,21,22,23,24,24a-hexadeca hydro-10H-9,12-methanocyclopenta[18,19] [1,10,3,6]dioxadiazacyclononadecino[11,12-b] quinoline-10-carboxamide] | 2.5 | 59 | – | –
13 | CCOc1c2c(nc3ccccc13)O[C@@H]1C[C@@H](C(=O)N[C@]3(C(=O)NS(=O)(=O)C4CC4)C[C@H]3CC)N(C1)C(=O)[C@H](C1CCCC1)NC(=O)O[C@@H]1CCC[C@H]1CCCCC2 [Example 25, (3aR,7S,10S,12R,24aR)-7-cyclo pentyl-N-{(1R,2R)-1-[(cyclopropylsulfonyl)carbamoyl]-2-ethylcyclopropyl}-19-ethoxy-5,8-dioxo-1,2,3,3a,5,6,7,8,11,12,20,21,22,23,24,24a-hexadecahydro-10H-9,12-methanocyclopenta[18,19][1,10,3,6]dioxa diazacyclononadecino[11,12-b]quinoline-10-carboxamide] | 5.2 | 88 | – | –
14 | C=C[C@@H]1C[C@]1(NC(=O)[C@@H]1C[C@@H]2CN1C(=O)[C@H](C1(C)CCCCC1)NC(=O)O[C@@H]1C[C@H]1CCCCCc1c(nc3ccccc3c1OCCCN1CCCOCC1)O2)C(=O)NS(=O)(=O)C1(C)CC1 [Example 270, (1aR,5S,8S,10R,22aR)—N-[(1R,2S)-2-ethenyl-1-{[(1-methylcyclopropyl)sulfonyl]carbamoyl}cyclopropyl]-5-(1-methylcyclohexyl)-17-[3-(1,4-oxazepan-4-yl)propoxy]-3,6-dioxo-1,1a,3,4,5,6,9,10,18,19,20,21,22,22a-tetradecahydro-8H-7,10-methanocyclopropa[18,19][1,10,3,6]dioxadiazacyclononadecino[11,12-b]quinoline-8-carboxamide] | – | 1.4 | 0.021 | 0.18
